Source: US9879024B2, “Crystal forms of (R)-N-methylnaltrexone bromide and uses thereof” (Progenics Pharmaceuticals, Inc., priority 2007, dated 2018)

Key:
Format in all cases: physicochemical
[1] = Equilibrium solubility of Form A at room temperature in solvents and aqueous buffers; details: thermodynamic from solid, read-out: Solubility at R.T.
Method: In each case, the equilibrium solubility of Form A at room temperature was measured by placing the compound in excess into different solvents and stirring overnight at ambient room temperature, protected from light. Solubility in the following solvents and aqueous buffers was evaluated at room temperature: methanol, ethanol, benzyl alcohol, dimethyl sulfoxide, water for injection, bacteriostatic water (containing 0.9% benzyl alcohol), 5% dextrose, normal saline (0.9% NaCl), pH 1.1 (glycine HCl), pH 4.2 (glycine HCl), pH 7.1 (phosphate buffer), and pH 9.1 (glycine). Solubilities are reported to the nearest mg/mL unless otherwise stated.

[2] = Solubility of Form A at 37° C. under conditions that simulate the human GI tract (HPLC of filtrate); details: thermodynamic from solid, 37° C. overnight
Method: […] All solutions were stored overnight in a 37° C. oven, and then filtered through a Whatman 0.45 μm nylon syringe filter to remove insoluble material.

[3] = Water solubility of amorphous Compound 1; details: qualitative statement, no data given

## C[N+]1(CC2CC2)CC[C@]23c4c5ccc(O)c4O[C@H]2C(=O)CC[C@@]3(O)[C@H]1C5.[Br-] (stereo partly drawn) [Form A, (R)-N-methylnaltrexone bromide]
[1]; aqueous buffer, pH 4.2 (glycine HCl buffer)
  solubility: 73.8 mg/mL
[1]; aqueous buffer, pH 7.1 (phosphate buffer)
  solubility: 74.9 mg/mL
[1]; aqueous buffer, pH 9.1 (glycine buffer)
  solubility: 71.1 mg/mL
[1]; dimethyl sulfoxide, organic solvent or mixture, Dimethylsulfoxide, stirred overnight
  solubility: > 170 mg/mL
[1]; organic solvent or mixture, Benzyl alcohol, stirred overnight
  solubility: 85.5 mg/mL
[1]; organic solvent or mixture, Ethanol, stirred overnight
  solubility: 6.1 mg/mL
[1]; organic solvent or mixture, Methanol, stirred overnight
  solubility: 2.5 mg/mL
[1]; saline or isotonic, 5% Dextrose, stirred overnight
  solubility: 61.3 mg/mL
[1]; saline or isotonic, Normal saline (0.9% NaCl), stirred overnight
  solubility: 59.7 mg/mL
[1]; simulated gastric fluid, 0.1N HCl
  solubility: 76.6 mg/mL
[1]; simulated gastric fluid, pH 1.1 (glycine HCl buffer)
  solubility: 70.1 mg/mL
[1]; Bacteriostatic water (0.9% benzyl alcohol), stirred overnight
  solubility: 86.5 mg/mL
[1]; Water for injection, stirred overnight
  solubility: 73.5 mg/mL
[2]; aqueous buffer, pH 4.5 (acetate buffer)
  solubility: 100 mg/mL
[2]; aqueous buffer, pH 6.8 (phosphate buffer)
  solubility: 101 mg/mL
[2]; aqueous buffer, pH 9.0 (borate buffer)
  solubility: 101 mg/mL
[2]; pH 1, simulated gastric fluid, 0.1N HCl
  solubility: 101 mg/mL

## C[N+]1(CC2CC2)CC[C@]23c4c5ccc(O)c4O[C@H]2C(=O)CC[C@@]3(O)[C@H]1C5.[Br-] (stereo partly drawn) [amorphous Compound 1, (R)-N-methylnaltrexone bromide]
[3]
  water solubility: enhanced water solubility
